Active and inactive are the calls of the source. The calls are words filed in the database; no cut-off is given here.
Key:
SK-HEP1 [1] = assay: Induction of cell cycle arrest in human SK-HEP1 cells assessed as G1 phase accumulation at 20 uM incubated for 24 hrs by propidium iodide staining based flow cytometry analysis (reference value: 48.61%); format: functional
Mus musculus [2] = assay: Downregulation of KIF14 expression in mouse liver at 40 mg/kg measured after 30 days by immunohistochemical staining analysis; format: functional, organism-based; conditions: time 30.0 day
SK-HEP1 [3] = assay: Antiproliferative activity against human SK-HEP1 cells overexpressing TRBP at 20 uM measured by crystal violet dye based colony formation assay; format: functional, cell-based
SK-HEP1 [4] = assay: Antiproliferative activity against human SK-HEP1 cells assessed as increase in miR-22-5p level at 20 uM by qRT-PCR analysis; format: functional, cell-based
SK-HEP1 [5] = assay: Antiproliferative activity against human SK-HEP1 cells assessed as decrease in miR135a-5p level at 20 uM by qRT-PCR analysis; format: functional, cell-based
SK-HEP1 [6] = assay: Antiproliferative activity against human SK-HEP1 cells assessed as decrease in miR-30a-5p level at 20 uM by qRT-PCR analysis; format: functional, cell-based
SK-HEP1 [7] = assay: Antiproliferative activity against human SK-HEP1 cells incubated for 24 hrs by alamar blue assay; format: functional, cell-based; conditions: SK-HEP1, 24 h
MHCC97 [8] = assay: Antiproliferative activity against human MHCC97 cells incubated for 24 hrs by alamar blue assay; conditions: MHCC97, 24 h
HepG2 [9] = assay: Antiproliferative activity against human HepG2 cells incubated for 24 hrs by alamar blue assay; conditions: HepG2, 24 h
HeLa [10] = assay: Antiproliferative activity against human HeLa cells incubated for 24 hrs by alamar blue assay
HCT-116 [11] = assay: Antiproliferative activity against human HCT-116 cells incubated for 24 hrs by alamar blue assay; conditions: HCT-116, 24 h
[12] = Antiproliferative activity against human QSG7701 cells incubated for 24 hrs by alamar blue assay; format: functional, cell-based; conditions: QSG7701, 24 h
SK-HEP1 [13] = assay: Inhibition of colony formation in human SK-HEP1 cells at 10 to 50 uM incubated for 14 days by crystal violet staining based assay; format: functional, cell-based; conditions: dose 10-50 µM, time 14.0 day
HCT-116 [14] = assay: Inhibition of colony formation in human HCT-116 cells at 30 uM incubated for 14 days by crystal violet staining based assay; format: functional, cell-based; conditions: time 14.0 day
HepG2 [15] = assay: Inhibition of colony formation in human HepG2 cells at 30 uM incubated for 14 days by crystal violet staining based assay; format: functional, cell-based; conditions: time 14.0 day
HeLa [16] = assay: Inhibition of colony formation in human HeLa cells at 30 uM incubated for 14 days by crystal violet staining based assay; format: functional, cell-based; conditions: time 14.0 day
SK-HEP1 [17] = assay: Induction of cell cycle arrest in human SK-HEP1 cells assessed as S phase accumulation at 20 uM incubated for 24 hrs by propidium iodide staining based flow cytometry analysis (reference value: 26.72%); format: functional
SK-HEP1 [18] = assay: Inhibition of epithelial-mesenchymal transition in human SK-HEP1 cells assessed as change in N-cadherin expression at 10 to 50 uM incubated for 24 hrs by Western blot analysis; format: functional, cell-based; conditions: dose 10-50 µM
MHCC97 [19] = assay: Antitumor activity in human MHCC97 cells xenografted in SCID mouse assessed as suppression of tumor growth at 40 mg/kg, ip administered once every 3 day for 30 days by bioluminescence analysis; format: functional, organism-based; conditions: time 30.0 day
[20] = Toxicity in SCID mouse xenografted with human MHCC97 cells assessed as increase in body weight at 40 mg/kg, ip administered once every 3 day for 30 days; format: organism-based; conditions: in vivo, 720 h, time 30 day
SK-HEP1 [21] = assay: Effect on human SK-HEP1 cells assessed as decrease in miR-224-5p level at 10 to 50 uM by qRT-PCR analysis; format: functional, cell-based; conditions: dose 10-50 µM
SK-HEP1 [22] = assay: Inhibition of MEK phosphorylation in human SK-HEP1 cells at 30 uM by Western blot analysis; format: cell-based
[23] = target: Transcription factor p65 (Homo sapiens) (UniProt Q04206); assay: Inhibition of p65 phosphorylation in human SK-HEP1 cells at 30 uM by Western blot analysis; format: cell-based
[24] = target: Mitogen-activated protein kinase; ERK1/ERK2 (Homo sapiens) (UniProt P27361+P28482); assay: Inhibition of ERK1/2 phosphorylation in human SK-HEP1 cells at 30 uM by Western blot analysis; format: cell-based
Mus musculus [25] = assay: Downregulation of CDC20 expression in mouse liver at 40 mg/kg measured after 30 days by immunohistochemical staining analysis; format: functional, organism-based; conditions: time 30.0 day
Mus musculus [26] = assay: Downregulation of UBE2S expression in mouse liver at 40 mg/kg measured after 30 days by immunohistochemical staining analysis; format: functional, organism-based; conditions: time 30.0 day
SK-HEP1 [27] = assay: Antiproliferative activity against human SK-HEP1 cells knockdown TRBP at 20 uM measured by crystal violet dye based colony formation assay; format: functional, cell-based
SK-HEP1 [28] = assay: Inhibition of cell migration in human SK-HEP1 cells knockdown TRBP at 20 uM measured after 12 hrs using crystal violet staining inverted microscope based transwell assay; format: functional
SK-HEP1 [29] = assay: Antiproliferative activity against human SK-HEP1 cells assessed as increase in miR-214-5p level at 20 uM by qRT-PCR analysis; format: functional, cell-based
SK-HEP1 [30] = assay: Antiproliferative activity against human SK-HEP1 cells assessed as increase in miR-224-5p level at 20 uM by qRT-PCR analysis; format: functional, cell-based
SK-HEP1 [31] = assay: Antiproliferative activity against human SK-HEP1 cells assessed as increase in miR-452-5p level at 20 uM by qRT-PCR analysis; format: functional, cell-based
SK-HEP1 [32] = assay: Antiproliferative activity against human SK-HEP1 cells assessed as increase in miR-222-5p level at 20 uM by qRT-PCR analysis; format: functional, cell-based
SK-HEP1 [33] = assay: Effect on Dicer protein expression in human SK-HEP1 cells at 30 uM after 24 hrs by immunoblot analysis; format: functional, cell-based
SK-HEP1 [34] = assay: Effect on TRBP protein expression in human SK-HEP1 cells at 30 uM after 24 hrs by immunoblot analysis; format: functional, cell-based

Sequence of Mitogen-activated protein kinase; ERK1/ERK2 (Homo sapiens) (P27361 whole entry, looked up): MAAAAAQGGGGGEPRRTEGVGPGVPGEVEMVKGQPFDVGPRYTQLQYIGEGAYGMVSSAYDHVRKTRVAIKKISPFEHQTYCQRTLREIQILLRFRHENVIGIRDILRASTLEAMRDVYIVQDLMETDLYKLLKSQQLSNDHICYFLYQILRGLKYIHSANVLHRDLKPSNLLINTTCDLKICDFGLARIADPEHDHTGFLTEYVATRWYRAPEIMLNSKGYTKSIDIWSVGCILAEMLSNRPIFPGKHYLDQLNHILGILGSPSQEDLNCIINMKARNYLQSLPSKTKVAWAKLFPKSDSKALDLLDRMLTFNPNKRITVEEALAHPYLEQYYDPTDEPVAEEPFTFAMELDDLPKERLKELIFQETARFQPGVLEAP
Sequence of Mitogen-activated protein kinase; ERK1/ERK2 (Homo sapiens) (P28482 whole entry, looked up): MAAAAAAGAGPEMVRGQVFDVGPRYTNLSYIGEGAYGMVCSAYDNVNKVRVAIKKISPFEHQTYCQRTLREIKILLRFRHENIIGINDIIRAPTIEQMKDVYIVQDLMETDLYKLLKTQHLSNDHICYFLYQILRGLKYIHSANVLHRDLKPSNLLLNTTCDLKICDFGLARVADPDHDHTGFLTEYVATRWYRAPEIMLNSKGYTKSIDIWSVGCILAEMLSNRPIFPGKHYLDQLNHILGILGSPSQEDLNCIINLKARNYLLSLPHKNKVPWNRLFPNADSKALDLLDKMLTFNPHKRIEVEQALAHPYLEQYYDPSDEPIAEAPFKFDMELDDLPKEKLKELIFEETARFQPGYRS
Sequence of Transcription factor p65 (Homo sapiens) (Q04206 whole entry): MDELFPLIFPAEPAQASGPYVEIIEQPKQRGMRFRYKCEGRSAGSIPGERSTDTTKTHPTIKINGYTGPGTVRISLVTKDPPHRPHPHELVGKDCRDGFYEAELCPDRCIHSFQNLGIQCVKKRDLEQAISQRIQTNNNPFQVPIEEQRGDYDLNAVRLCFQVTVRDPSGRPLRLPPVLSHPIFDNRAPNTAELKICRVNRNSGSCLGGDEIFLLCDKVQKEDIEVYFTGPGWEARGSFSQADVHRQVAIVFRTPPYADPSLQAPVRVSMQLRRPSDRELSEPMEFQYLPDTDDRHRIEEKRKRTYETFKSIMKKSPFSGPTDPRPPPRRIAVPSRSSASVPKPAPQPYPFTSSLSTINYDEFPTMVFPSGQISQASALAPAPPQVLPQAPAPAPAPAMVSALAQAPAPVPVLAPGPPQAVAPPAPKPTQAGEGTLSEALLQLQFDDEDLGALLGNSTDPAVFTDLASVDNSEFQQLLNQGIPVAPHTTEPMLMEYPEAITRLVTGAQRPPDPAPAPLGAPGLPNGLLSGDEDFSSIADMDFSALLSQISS

Compound: COc1cc2c(c(O)c1OC)-c1c(cc3c(c1OC)OCO3)C[C@H](C)[C@H](C)C2
- Activity (SK-HEP1 [1]): 57.4%
- Activity (Mus musculus [2]): Active
- Activity (SK-HEP1 [3]): Active
- Activity (SK-HEP1 [4]): inactive
- Activity (SK-HEP1 [5]): inactive
- Activity (SK-HEP1 [6]): inactive
- IC50 (SK-HEP1 [7]): 20.6 µM
- IC50 (MHCC97 [8]): 24.8 µM
- IC50 (HepG2 [9]): 27.3 µM
- IC50 (HeLa [10]): 32.8 µM
- IC50 (HCT-116 [11]): 55.4 µM
- IC50 [12]: 53 µM
- inhibition (SK-HEP1 [13]): Active
- inhibition (HCT-116 [14]): Active
- inhibition (HepG2 [15]): Active
- inhibition (HeLa [16]): Active
- Activity (SK-HEP1 [17]): 22.3%
- inhibition (SK-HEP1 [18]): inactive
- Activity (MHCC97 [19]): Active
- Activity [20]: Toxic
- Activity (SK-HEP1 [21]): Active
- inhibition (SK-HEP1 [22]): Active
- inhibition [23]: Active
- inhibition [24]: Active
- Activity (Mus musculus [25]): Active
- Activity (Mus musculus [26]): Active
- Activity (SK-HEP1 [27]): inactive
- inhibition (SK-HEP1 [28]): inactive
- Activity (SK-HEP1 [29]): Active
- Activity (SK-HEP1 [30]): inactive
- Activity (SK-HEP1 [31]): inactive
- Activity (SK-HEP1 [32]): inactive
- Activity (SK-HEP1 [33]): inactive
- Activity (SK-HEP1 [34]): inactive
